Reference: patent publication US12077503B2, “Substituted cyclic amides and their use as herbicides” (FMC CORPORATION, priority 2015, dated 2024)
Read-outs that look alike come from different tables or passages of the source.

Legend:
Type in all cases: in vivo
[1] = tested on: sedge, umbrella (small-flower umbrella sedge, Cyperus difformis); test: Test B flooded paddy test; conditions: Cyperus difformis, Flood, 250 g ai/ha, read-out: Sedge, Umbrella plant response rating
Outline: (§1)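 Percent control, visually estimated after 13–15 d in the greenhouse on a 0–100 basis, compares treated pots with untreated ones; compound was put into paddy water 3 cm above the soil when plants had two leaves.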

[2] = tested on: rice (Oryra sativa); test: Test B flooded paddy test; conditions: Oryza sativa, Flood, 250 g ai/ha, read-out: Rice plant response rating
Outline: as §1

[3] = tested on: barnyardgrass (Echinochloa crus-galli); test: Test B flooded paddy test; conditions: Echinochloa crus-galli, Flood, 250 g ai/ha, read-out: Barnyardgrass plant response rating
Outline: as §1

[4] = tested on: ducksalad (Heteranthera limosa); test: Test B flooded paddy test; conditions: Heteranthera limosa, Flood, 250 g ai/ha, read-out: Ducksalad plant response rating
Outline: as §1

[5] = tested on: ryegrass, Italian (Italian ryegrass, Lolium multiflorum); test: Test A preemergence; conditions: Lolium multiflorum, pre-emergence, 240 h; for pest or weed control at 125 g/ha: 125 g ai/ha
Outline: (§2)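 Treatment is preemergence as a directed soil spray after planting, or postemergence at the one- to two-leaf stage, with test chemical in a non-phytotoxic solvent mixture plus surfactant. Plants stay in the greenhouse about 10 d before visual injury scoring on a 0 to 100 scale versus untreated controls.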

[6] = tested on: ragweed (common ragweed, Ambrosia elatior); test: Test A preemergence; conditions: Ambrosia artemisiifolia, pre-emergence, 240 h; for pest or weed control at 125 g/ha: 125 g ai/ha
Outline: as §2

[7] = tested on: pigweed (Amaranthus retroflexus); test: Test A preemergence; conditions: Amaranthus retroflexus, pre-emergence, 240 h; for pest or weed control at 125 g/ha: 125 g ai/ha
[8] = tested on: Kochia (Kochia scoparia); test: Test A preemergence; conditions: Bassia scoparia, pre-emergence, 240 h; for pest or weed control at 125 g/ha: 125 g ai/ha, preemergence, 0 to 100 scale where 0 is no effect and 100 is complete control
Outline: as §2

[9] = tested on: barnyardgrass (Echinochloa crus-galli); test: Test A preemergence; conditions: Echinochloa crus-galli, pre-emergence, 240 h; for pest or weed control at 125 g/ha: 125 g ai/ha
Outline: as §2

[10] = tested on: giant foxtail (Setaria faberii); test: Test A preemergence; conditions: Setaria faberi, pre-emergence, 240 h; for pest or weed control at 125 g/ha: 125 g ai/ha
Outline: as §2

[11] = tested on: corn (Zea mays); test: Test A postemergence; conditions: Zea mays, post-emergence, 240 h; for plant injury at 125 g/ha: 125 g ai/ha
Outline: as §2

[12] = tested on: pigweed (Amaranthus retroflexus); test: Test A postemergence; conditions: Amaranthus retroflexus, post-emergence, 240 h; for pest or weed control at 125 g/ha: 125 g ai/ha
Outline: as §2

[13] = tested on: Kochia (Kochia scoparia); test: Test A postemergence; conditions: Bassia scoparia, post-emergence, 240 h; for pest or weed control at 125 g/ha: 125 g ai/ha
Outline: as §2

[14] = tested on: Galium (catchweed bedstraw, Galium aparine); test: Test A postemergence; conditions: Galium, post-emergence, 240 h; for pest or weed control at 125 g/ha: 125 g ai/ha
Outline: as §2

[15] = scale of 0 to 100 where 0 is no effect and 100 is complete control
[16] = 0 to 100 scale where 0 is no effect and 100 is complete control

Molecule CN1CC[C@H](c2ccc3c(c2)OC(F)(F)O3)[C@@H](C(=O)Nc2ccc(F)c(F)c2F)C1=O [Compound 813] has a pest or weed control at 250 g/ha [1, 15] of 0%, a pest or weed control at 250 g/ha [2, 15] of 20% and a pest or weed control at 250 g/ha [3, 15] of 70%. It also gave a pest or weed control at 250 g/ha [4, 15] of 100%, a pest or weed control at 125 g/ha ([5]; preemergence, visual rating after approx. 10 d, 0 to 100 scale where 0 is no effect and 100 is complete control, read-out: Plant response rating, Ryegrass, Italian) of 20% and a pest or weed control at 31 g/ha ([5]; Preemergence, 31 g ai/ha, 0 to 100 scale (0 no effect, 100 complete control), read-out: Plant response rating, Ryegrass, Italian) of 0%. For the same molecule, the pest or weed control at 125 g/ha ([6]; preemergence, visual rating after approx. 10 d, 0 to 100 scale where 0 is no effect and 100 is complete control, read-out: Plant response rating, Ragweed) was 0%, the pest or weed control at 31 g/ha ([6]; Preemergence, 31 g ai/ha, 0 to 100 scale (0 no effect, 100 complete control), read-out: Plant response rating, Ragweed) was 0% and the pest or weed control at 125 g/ha ([7]; preemergence, visual rating after approx. 10 d, 0 to 100 scale where 0 is no effect and 100 is complete control, read-out: Plant response rating, Pigweed) was 0%. It also gave a pest or weed control at 31 g/ha ([7]; Preemergence, 31 g ai/ha, 0 to 100 scale (0 no effect, 100 complete control), read-out: Plant response rating, Pigweed) of 0%, a pest or weed control at 125 g/ha ([8]; visual rating after approx. 10 d, read-out: Plant response rating, Kochia) of 0% and a pest or weed control at 31 g/ha ([8]; Preemergence, 31 g ai/ha, 0 to 100 scale (0 no effect, 100 complete control), read-out: Plant response rating, Kochia) of 0%. It also gave a pest or weed control at 125 g/ha ([9]; preemergence, visual rating after approx. 10 d, 0 to 100 scale where 0 is no effect and 100 is complete control, read-out: Plant response rating, Barnyardgrass) of 80%, a pest or weed control at 31 g/ha ([9]; Preemergence, 31 g ai/ha, 0 to 100 scale (0 no effect, 100 complete control), read-out: Plant response rating, Barnyardgrass) of 20% and a pest or weed control at 125 g/ha ([10]; preemergence, visual rating after approx. 10 d, 0 to 100 scale where 0 is no effect and 100 is complete control, read-out: Plant response rating, Foxtail, Giant) of 90%. It also gave a pest or weed control at 31 g/ha ([10]; Preemergence, 31 g ai/ha, 0 to 100 scale (0 no effect, 100 complete control), read-out: Plant response rating, Foxtail, Giant) of 70%, a plant injury at 125 g/ha ([11]; postemergence, visual injury rating after approximately 10 d, read-out: Corn plant response rating (0 to 100 scale, 0 no effect, 100 complete control)) of 40% and a Corn plant response rating (crop injury, 0 = no effect, 100 = complete kill) at 31 g/ha ([11]; Postemergence, 31 g ai/ha, visual injury after approx. 10 d, 0 to 100 scale, 0 no effect, 100 complete control) of 30%. The pest or weed control at 125 g/ha ([12]; postemergence, visual injury rating after approximately 10 d, read-out: Pigweed plant response rating (0 to 100 scale, 0 no effect, 100 complete control)) was 0%, the pest or weed control at 31 g/ha ([12]; Postemergence, 31 g ai/ha, visual injury after approx. 10 d, 0 to 100 scale, 0 no effect, 100 complete control, read-out: Plant response rating, Pigweed) was 0% and the pest or weed control at 125 g/ha ([13]; postemergence, visual injury rating after approximately 10 d, read-out: Kochia plant response rating (0 to 100 scale, 0 no effect, 100 complete control)) was 0%. The pest or weed control at 31 g/ha ([13]; Postemergence, 31 g ai/ha, visual injury after approx. 10 d, 0 to 100 scale, 0 no effect, 100 complete control, read-out: Plant response rating, Kochia) was 0%, the pest or weed control at 125 g/ha ([14]; postemergence, visual injury rating after approximately 10 d, read-out: Galium plant response rating (0 to 100 scale, 0 no effect, 100 complete control)) was 30% and the pest or weed control at 31 g/ha ([14]; Postemergence, 31 g ai/ha, visual injury after approx. 10 d, 0 to 100 scale, 0 no effect, 100 complete control, read-out: Plant response rating, Galium) was 20%.
Work on Cc1ccccc1NC(=O)[C@H]1C(=O)N(C)C[C@@H]1c1ccc(C(F)(F)F)cc1 [Compound 1239] yielded a pest or weed control at 250 g/ha [1, 16] of 0%, a pest or weed control at 250 g/ha [2, 16] of 20% and a pest or weed control at 250 g/ha [3, 16] of 40%. It also gave a pest or weed control at 250 g/ha [4, 16] of 100%, a pest or weed control at 125 g/ha ([5]; preemergence, visual injury rating, 0 to 100 scale where 0 is no effect and 100 is complete control, approximately 10 d, read-out: Ryegrass, Italian plant response rating) of 50% and a pest or weed control at 500 g/ha ([5]; 500 g ai/ha, preemergence, 0 to 100 scale where 0 is no effect and 100 is complete control, read-out: Ryegrass, Italian plant response rating) of 50%. The pest or weed control at 125 g/ha ([6]; preemergence, visual injury rating, 0 to 100 scale where 0 is no effect and 100 is complete control, approximately 10 d, read-out: Ragweed plant response rating) was 0%, the pest or weed control at 500 g/ha ([6]; 500 g ai/ha, preemergence, 0 to 100 scale where 0 is no effect and 100 is complete control, read-out: Ragweed plant response rating) was 70% and the pest or weed control at 125 g/ha ([7]; preemergence, visual injury rating, 0 to 100 scale where 0 is no effect and 100 is complete control, approximately 10 d, read-out: Pigweed plant response rating) was 20%. It also gave a pest or weed control at 500 g/ha ([7]; 500 g ai/ha, preemergence, 0 to 100 scale where 0 is no effect and 100 is complete control, read-out: Pigweed plant response rating) of 60%, a pest or weed control at 125 g/ha ([8]; visual injury rating, approximately 10 d, read-out: Kochia plant response rating) of 90% and a pest or weed control at 125 g/ha ([9]; preemergence, visual injury rating, 0 to 100 scale where 0 is no effect and 100 is complete control, approximately 10 d, read-out: Barnyardgrass plant response rating) of 80%. The pest or weed control at 500 g/ha ([9]; 500 g ai/ha, preemergence, 0 to 100 scale where 0 is no effect and 100 is complete control, read-out: Barnyardgrass plant response rating) was 90%, the pest or weed control at 125 g/ha ([10]; preemergence, visual injury rating, 0 to 100 scale where 0 is no effect and 100 is complete control, approximately 10 d, read-out: Foxtail, Giant plant response rating) was 90% and the pest or weed control at 500 g/ha ([10]; 500 g ai/ha, preemergence, 0 to 100 scale where 0 is no effect and 100 is complete control, read-out: Foxtail, Giant plant response rating) was 90%. The plant injury at 125 g/ha ([11]; postemergence, visual injury vs untreated controls after approx. 10 d, 0 = no effect, 100 = complete control, read-out: Corn plant response rating (0 to 100 scale)) was 50%, the plant injury at 500 g/ha ([11]; 500 g ai/ha, postemergence, 0 to 100 scale, 0 is no effect, 100 is complete control, read-out: Corn plant response rating) was 70% and the pest or weed control at 125 g/ha ([12]; postemergence, visual injury vs untreated controls after approx. 10 d, 0 = no effect, 100 = complete control, read-out: Pigweed plant response rating (0 to 100 scale)) was 50%. The pest or weed control at 500 g/ha ([12]; 500 g ai/ha, postemergence, 0 to 100 scale, 0 is no effect, 100 is complete control, read-out: Pigweed plant response rating) was 50%, the pest or weed control at 125 g/ha ([13]; postemergence, visual injury vs untreated controls after approx. 10 d, 0 = no effect, 100 = complete control, read-out: Kochia plant response rating (0 to 100 scale)) was 40% and the pest or weed control at 500 g/ha ([13]; 500 g ai/ha, postemergence, 0 to 100 scale, 0 is no effect, 100 is complete control, read-out: Kochia plant response rating) was 70%. It also gave a pest or weed control at 125 g/ha ([14]; postemergence, visual injury vs untreated controls after approx. 10 d, 0 = no effect, 100 = complete control, read-out: Galium plant response rating (0 to 100 scale)) of 60% and a pest or weed control at 500 g/ha ([14]; 500 g ai/ha, postemergence, 0 to 100 scale, 0 is no effect, 100 is complete control, read-out: Galium plant response rating) of 60%.
